# Assay results: US8324166B2, “Neuroprotection using NAP-like and SAL-like peptide mimetics” (Ramot at Tel-Aviv University, Ltd., priority 2007, dated 2012)
# Several values for one entry are separate records, joined by “and”; a condition that tells them apart may be missing. Identical values can stand only once. Entries after “also recorded” stand apart in the source; their conditions may differ.
# Legend:
# [1] = test system: rTg(tauP301L)4510 mouse (Tau-Tg); assay: Brain-Body weight ratio in Tau transgenic mice; type: in vivo
# Experimental: (§1) The experiment included three groups: Tau-Tg female mice, 10-month-old, treated by intranasal administration of NAT 2 μg/5 μl/mouse/day (n=5) or vehicle (SW/mouse/day) (n=6), and as control, non-Tg female littermates treated by vehicle (SW/mouse/day) (n=7).
# Treatment started at 9 months of age and continued daily for a period of 5 weeks. At each test NAT was applied 1 h before the test begun.
# All mice were weighed at the beginning and end of the experiment and whole brain weight was measured before the brain dissection.
# All mice were weighed before first drug application and again before the dissection (while still alive). […] Whole brain was weighed before the brain sections were separated and no significant statistical differences between the groups were found. However, Brain-Body weight ratio may be used to measure brain mass decrease possibly indicating neuronal degradation (Bassan et al., (2009) J Matern Fetal Neonatal Med, 1-6).
# ADNP = assay: Nuclear ADNP level in cerebral cortex by immunoblotting; type: in vivo, mouse; conditions: NAT vs vehicle treated TAU-Tg, p=0.0028, listed as NAT
# Experimental: as §1
# Mouse brain tissue was rapidly dissected and quickly separated into four different brain sections: cortex, hippocampus, cerebellum and rest of the brain. Brains were kept frozen at −80° C. for further biochemical analysis. Total levels of nuclear ADNP were analyzed by immunoblotting. Cerebral cortex samples (˜50 mg each) were homogenized and cytoplasmic and nucleus proteins were separated using lysis buffer (20 mM TRIS HCl pH […], 0.1 mM EDTA, 1.5 mM MgCl2, 0.2% NP-40) and extraction buffer (10 mM TRIS HCl pH 7.7, 0.1 mM EDTA, 1.5 mM MgCl2, 20% Glycerol, 1.61 gr NaCl). Protein amount was estimated and corrected by using the Bradford assay and then separated by electrophoresis on 12% polyacrylamide gels containing SDS (Shiryaev et al., (2009) Neurobiol Dis, 34, 381-388). Western blot analyses were performed by applying brain protein samples onto two gels. Each gel had sample representation from each one of the three groups. […] Protein bands on hyperfilm were quantified using photochromatography analysis. The ADNP amount in each band was calculated as its percentage from the total amount of all bands. […]
# [2] = target: VQIVYK (peptide derived from third microtubule binding repeat of tau) (Homo sapiens, UniProt P10636); assay: In vitro VQIVYK (tau-like) aggregation assay, Thioflavin S; type: biochemical; conditions: peptides 10^−17 M -10^−9 M; 100 μM VQIVYK, polyglutamate 250 μM, MOPS pH 6.5, 7 days; compared with NAP
# Experimental: VQIVYK aggregation: Tau is a highly soluble protein. The unfolded protein lacks a defined 3D structure. Its main role is stabilization of microtubules in neuronal axons. Tau contains three or four microtubule binding repeats. ^306VQIVYK^311 is a peptide derived from the beginning of the third microtubule binding repeat of tau, which is present in all tau variants.
# In vitro aggregation assay was performed in the presence of polyglutamic acid (or heparin), VQIVYK aggregates were further detected by Thioflavin S (excitation 485 nm and emission 535) with emission intensity greatly increasing.
# First, different concentrations of polyglutamic acid (0,100 μM, 250 μM, 400 μM) VQIVYK and either […] (NH4Ac) 50 mM pH 6.5 or MOPS 20 mM pH 6.5 and Thioflavin S 5 μM were mixed together and incubated at room temperature. The extent of aggregation was read at excitation 485 nm and emission 535 nm using the infinite 200 system with the Magellan program.
# In order to avoid reading self peptide aggregation as VQIVYK aggregation, for each peptide concentration, the fluorescence of the peptide solution without VQIVYK was subtracted from the fluorescence of each peptide concentration containing VQIVYK.
# [3] = test system: neurons in mixed neuroglial cultures intoxicated with beta-amyloid 1-42; assay: MAP2 assay: neuronal survival in mixed neuroglial cultures following beta-amyloid intoxication; type: cell-based, rat
# Experimental: Newborn rats were used to prepare cerebral cortical astrocytes cell cultures as described above. After suspending the cells in D1, they were centrifuged at 100 g for 5 minutes and the supernatant discarded. The cell pellet was resuspended in solution D2 containing 5% heat inactivated horse serum (Biological Industries, Beit Haemek, Israel), 0.1% gentamycin, 0.1% penicillin-streptomycin-nystatin, 1% N3 (defined medium components essential for neuronal development in culture, (Romijn HJ, Brain Res., 254:583-9 (1981)]), 15 μg/ml 5′-fluoro-2-deoxyuridine (FUDR, Sigma, Rehovot, Israel), and 3 μg/ml uridine (Sigma, Rehovot, Israel) in DMEM. Cells were counted in a hemocytometer, diluted in D2 and 17,000 cells/well/96 well plate were seeded on 8-day-old astrocytes prepared as described above. The medium was changed the next day to D2 without FUDR and uridine. Cells were allowed to grow for one week at 37° C. 10% CO2 before experiments were performed.
# Neuronal survival in neuroglial cultures following beta-amyloid intoxication was assayed using the neuron specific antibody, MAP2. […] The cells were incubated for 5 days in 10% CO2 at 37°C.
# 5 days after the addition of beta-amyloid and the peptide, the cells were fixed by removing the media from each well and the addition of cold methanol. The cells were left in the refrigerator overnight. The cells were immunostained with anti-MAP2 as previously described (Brooke S M et al., Neurosci. Lett., 267:21-4(1999)): the methanol was removed and the cells were washed 4 times with phosphate buffered saline (PBS). Blocking for non-specific antibody binding was performed by incubating the cells in 5% non-fat milk in PBS overnight at 4° C. The blocking solution was then removed and anti-MAP2(1:1000; Sigma, Rehovot, Israel) was added to each well. The cells were incubated for 30 minutes at room temperature, followed by 4 washes with PBS. Biotinylated anti-mouse IgG (1:200, Vector Laboratories, Burlingame, Calif., USA) was then added to each well, and the cells were incubated for 30 minutes at room temperature followed by 4 washes with PBS. The cells were incubated at room temperature for 30 minutes with the ABC reagent (Vector Laboratories, Burlingame, Calif., USA) prepared according to the manufacturer's protocol and then washed 4 times with PBS. ABTS reagent, prepared according to the manufacturer's protocol (Vector Laboratories, Burlingame, Calif., USA) was then added to each well and the cells were incubated for 20 minutes in the dark at room temperature. The plates were read in an ELISA plate reader at 405nm. As blanks, wells containing untreated cells and no primary antibody were used.
sequence,measurement,setting,value
NATLSIHQ (synthetic NAP-like peptide),protection from neurodegeneration (Brain-Body weight ratio),"[1]; TAU-Tg mice, intranasal NAT, listed as NAT",protected the brain from neurodegeneration; also recorded: protective effect
same,Brain-Body weight ratio,"[1]; TAU-Tg+NAT, intranasal daily 5 weeks, mean and S.E., p=0.030 vs vehicle treated TAU-Tg",0.0148+0.0009
same,amount of nuclear ADNP protein,ADNP,difference between the NAT and vehicle treated TAU-Tg groups; also recorded: statistically significant increase
same,inhibition of VQIVYK (tau) aggregation,[2],superior to NAP; also recorded: superior effect than NAPVSIPQ
same,effective concentrations on neuronal survival: Neurons (25 μM beta-amyloid),"[3]; MAP2 assay, 5 days, tested 10^−19M to 10^−5M, significance vs negative control in cell",10^−19 M and 10^−15 M and 10^−17 M and 10^−13 M
same,activity in neuroprotection assay,"[3]; neuroglial cells, beta-amyloid",active
same,efficacy compared between peptides,[3]; survival of neuroglial cells,greater than that of STPTAIPQ
